Measurements: the supplement of paper PMC10307832

Tests used:
Experiment in all cases: relative viability (nuclei count vs DMSO), 5 days (fraction); higher = more cells survive
[1] = compound: Cc1cnc(CNC(=O)c2c(=O)c3ccc(N4CCCN(C)CC4)nc3n3c2sc2ccccc23)cn1 [CX-5461] + CS(=O)(=O)N1CCN(Cc2cc3nc(-c4cccc5[nH]ncc45)nc(N4CCOCC4)c3s2)CC1 [Pictilisib] (partner 1 µM)
Method in brief: (§1)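 Relative viability divides the nuclei count in treated wells by that in vehicle wells. Lung cancer cell lines were seeded in 1536-well plates, dosed by pin tool the next day, and fixed and stained after 5 days in one step with final 0.05% Triton X-100, 1% formaldehyde and 1 ug/ml Hoechst. Dosing was a single drug or a fixed anchor-drug dose plus five library-drug doses (not always all listed) in √10 steps, and values are medians of duplicate plates imaged at 4×.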

[2] = compound: O=C(Nc1cc(C(F)(F)F)cc(C(F)(F)F)c1)c1cc(Cl)ccc1O [IMD-0354] + COc1cccc2cc(-c3nc([C@H]4CC[C@H](C(=O)O)CC4)n4ncnc(N)c34)[nH]c12 [OSI-027] (partner 0.5 µM)
Method in brief: as §1

[3] = compound: O=C(Nc1cc(C(F)(F)F)cc(C(F)(F)F)c1)c1cc(Cl)ccc1O [IMD-0354] + NC(=O)Nc1cc(-c2cccc(F)c2)sc1C(=O)N[C@H]1CCCNC1 [AZD7762] (partner 0.2 µM)
Method in brief: as §1

[4] = compound: Cc1cnc(CNC(=O)c2c(=O)c3ccc(N4CCCN(C)CC4)nc3n3c2sc2ccccc23)cn1 [CX-5461] + CCNC(=O)c1noc(-c2cc(C(C)C)c(O)cc2O)c1-c1ccc(CN2CCOCC2)cc1 [Luminespib] (partner 0.01 µM)
Method in brief: as §1

Cell Line	relative viability ([1]; first compound 0.01 µM)	relative viability ([1]; first compound 0.03162 µM)	relative viability ([1]; first compound 0.1 µM)	relative viability ([1]; first compound 0.3162 µM)	relative viability ([1]; first compound 1 µM)	relative viability ([2]; first compound 0.04 µM)	relative viability ([2]; first compound 0.1265 µM)	relative viability ([2]; first compound 0.4 µM)	relative viability ([2]; first compound 1.265 µM)	relative viability ([2]; first compound 4 µM)	relative viability ([3]; first compound 0.04 µM)	relative viability ([3]; first compound 0.1265 µM)	relative viability ([3]; first compound 0.4 µM)	relative viability ([3]; first compound 1.265 µM)	relative viability ([3]; first compound 4 µM)	relative viability ([4]; first compound 0.01 µM)	relative viability ([4]; first compound 0.03162 µM)	relative viability ([4]; first compound 0.1 µM)	relative viability ([4]; first compound 0.3162 µM)	relative viability ([4]; first compound 1 µM)
HCC-78	0.187	0.194	0.172	0.252	0.212	0.321	0.363	0.314	0.296	0.283	0.783	0.658	0.543	0.672	0.485					
HCC-366	0.133	0.142	0.142	0.0964	0.162	0.909	0.929	0.496	0.209	0.0404	0.277	0.361	0.148	0.0408	0.048					
IA-LM	0.337	0.327	0.254	0.33	0.207															
NCI-H520	0.218	0.299	0.285	0.305	0.298	0.297	0.27	0.194	0.283	0.129						0.195	0.194	0.202	0.262	0.218
NCI-H522						0.723	0.683	0.688	0.385	0.343	1.05	0.815	0.702	0.766	0.461	1.49	1.22	1.98	1.05	1.08
NCI-H661	0.372	0.405	0.377	0.374	0.382	0.812	0.66	0.577	0.264	0.25						0.928	0.879	0.792	0.575	0.433
NCI-H1299	0.842		0.768	0.799	0.545															
NCI-H1563	0.648	0.662	0.637	0.624	0.528	0.775	0.769	0.66	0.297	0.413						0.47	0.595	0.438	0.565	0.498
NCI-H1623						0.464	0.395	0.458	0.409	0.37						0.528	0.542	0.515	0.536	0.51
NCI-H1648							0.27	0.287	0.244	0.278	0.616	0.715	0.526	0.705	0.297					
NCI-H1650	0.577	0.593		0.206	0.226	0.704	0.491	0.362	0.189	0.259						0.181	0.161	0.211	0.215	0.193
NCI-H1703	0.258	0.243	0.239	0.284	0.221						0.124	0.0845	0.141	0.142	0.117					
NCI-H2009	0.87	0.862	0.635	0.519	0.815	0.703	0.564	0.416	0.133	0.109						1.08	1.02	0.887	0.985	0.508
NCI-H2023	0.284	0.257		0.0857	0.102	0.484	0.382	0.274	0.105	0.108						0.675	0.318		0.314	0.0698
NCI-H2228	0.646	0.425	0.255	0.432	0.153	0.586	0.431	0.348	0.23	0.142						0.148	0.147	0.196	0.172	0.101
NCI-H2342						0.723	0.659	0.499	0.472	0.482	0.539	0.509	0.469	0.31	0.385	0.778	0.653	0.657	0.761	0.693
SK-LU-1	0.659	0.616	0.602	0.573	0.417	0.32	0.305	0.277	0.181	0.193						0.22	0.185	0.204		0.166
SK-MES-1	0.391	0.352	0.402	0.324	0.333	0.647	0.542	0.462	0.199	0.202						0.801	0.975	0.695	0.735	0.304
SW 900						0.64	0.674	0.308	0.263	0.248	0.649	0.693	0.441	0.24	0.254	0.171	0.162	0.19	0.18	0.176
SW 1573	0.56	0.471	0.461	0.59	0.452	0.849	0.566	0.349	0.124	0.0864						0.295	0.163	0.164	0.187	0.0965
